Data reported in patent US12503453B2, “USP7 inhibition” (Dana-Farber Cancer Institute, Inc., priority 2018, dated 2025).

Experiments:
USP7 catalytic domain = USP7 catalytic domain (Homo sapiens (Human), UniProt Q93009); assay: MS labeling of purified USP7 catalytic domain (intact MS, CE-MS); type: binding
Procedure: Purified USP7 catalytic domain was diluted to 20 μM in 10 μL labeling buffer (20 mM HEPES pH 7.5, 150 mM NaCl, 1 mM TCEP) and incubated for the indicated times with 50 μM (2.5×) compound. After incubation, samples were flash frozen in liquid nitrogen and stored at −80° C. until analysis.
Intact mass analysis was performed by injecting 5 μg USP7 catalytic domain onto a self-packed reversed phase column ( 1/32″ O.D.×500 um I.D., 5 cm of POROS 10R2 resin). After desalting, protein was eluted with an HPLC gradient (0-100% B in 4 minutes, A=0.2M acetic acid in water, B=0.2 M acetic acid in acetonitrile, flow rate ˜30 μL/min) into an LTQ ion trap mass spectrometer (ThermoFisher Scientific, San Jose, CA). Mass spectra were deconvoluted using MagTran1.03b2 software. Zhang, Z. & Marshall, A. G. A universal algorithm for fast and automated charge state deconvolution of electrospray mass-to-charge ratio spectra. J. Am. Soc. Mass Spectrom. 9, 225-233 (1998).
To identify sites of covalent modification, treated protein was reduced (10 mM dithiothreitol), alkylated (22.5 mM iodoacetamide), and digested with trypsin overnight at 37° C. Peptides were desalted using SP3 (Hughes, C. S. et al. Ultrasensitive proteome analysis using paramagnetic bead technology. Mol. Syst. Biol. 10, 757-757 (2014)), dried by vacuum centrifugation, and reconstituted in 1% formic acid/50% acetonitrile with 100 mM ammonium acetate. Peptides were then analyzed by CE-MS using a ZipChip CE system and autosampler (908 Devices, Boston, MA) interfaced to a QExactive HF mass spectrometer (ThermoFisher Scientific, San Jose, CA). Peptide solution was loaded for 30 seconds, and the mass spectrometer was operated in data dependent mode and subjected the 5 most abundant ions in each MS scan (60 k resolution, 3E6 target, lock mass enabled) to MS/MS (15 k resolution, 1E5 target, 100 ms max inject time). Dynamic exclusion was enabled with a repeat count of 1 and an exclusion time of 6 seconds. […]

TC71 cells = assay: Cell proliferation (CellTiter-Glo), TC71; type: cell-based; conditions: TP53-mutant, 3 days
Procedure: (§1) Cells were plated in 384-well culture-treated plates and allowed to settle overnight. After drug treatment and appropriate incubation time, cell viability was assessed using the CellTiter-Glo Luminescent Cell Viability Assay (Promega). Luminescence was read on a Fluostar Omega Reader (BMG Labtech).

MCF7 cells = assay: Cell cycle analysis by propidium iodide staining; type: cell-based; conditions: 1 μM, 24 hours
Procedure: For propidium iodide (PI) staining, treated cells (˜1 million per condition) were washed with cold PBS, then fixed in 80% ethanol overnight at −20° C. After fixing, cells were pelleted, washed with PBS, and reconstituted in 500 μL FxCycle PI/RNAse A staining solution (Thermo Fisher). Cells were stored overnight at 4° C. and analyzed using a BD Fortessa flow cytometer.

TC138 cells = assay: Cell proliferation (CellTiter-Glo), TC138; type: cell-based; conditions: TP53 wild-type, 3 days
Procedure: as §1

USP7 [1] = biological target: T1, USP7 (Homo sapiens (Human), UniProt Q93009); assay: Competitive ABPP with HA-Ub-VS in MCF7 crude cell extracts; type: binding; conditions: read-out: IC50 of inhibition of HA-Ub-VS labeling
Procedure: (§2) HA-Ub-VS experiments were performed as previously described in Lamberto, I. et al. Structure-Guided Development of a Potent and […] Selective Non-covalent Active-Site Inhibitor of USP7. Cell Chem. Biol. 24, 1490-1500 (2017). Briefly, target engagement lysis buffer (50 mM Tris pH 8.0, 150 mM NaCl, 5 mM MgCl2, 0.5 mM EDTA, 0.5% NP-40, 10% glycerol, 1 mM TCEP, protease and phosphatase inhibitors) was added to cell pellets on ice. Lysate was cleared by centrifugation and diluted to 1.67 mg/mL. Where indicated, 30 μL lysate was then incubated with inhibitors or DMSO for the indicated timepoints. 1 μM HA-Ub-VS was then added to the lysate and incubated at RT for the indicated time points. Labeling reactions were quenched with 4×LDS sample buffer (Thermo Fisher B0007) supplemented with 10% BME, vortexed vigorously, and heated to 95° C. for 5 minutes. Samples were resolved by SDS-PAGE and analyzed by Western blot with the indicated antibodies.

[2] = system: 41 purified recombinant DUBs; assay: In vitro DUB profiling, panel of 41 recombinant DUBs (Ub-Rho); type: biochemical; conditions: 1 μM, 15 minutes pre-incubation
Procedure: Compounds were screened using the Ubiquigent Drug Profiler SPT system. Each of 41 purified DUBs was incubated with compound for 15 minutes, then ubiquitin rhodamine 110 (Ub-Rho) was added and percent inhibition determined based on fluorescence relative to a DMSO control.

USP7 [3] = biological target: T1, USP7; assay: Live cell treatment and competitive ABPP with HA-Ub-VS; type: cell-based; conditions: live cell treatment, 6 hr; read-out: IC50 of USP7 inhibition in cyto
Procedure: as §2

[4] = system: MDM2-p53 signaling axis in MCF7 cells; assay: Whole cell lysate Western blots of MCF7 cells (MDM2-p53 signaling axis); type: cell-based; conditions: wild-type TP53
TC32 cells = assay: Cell proliferation (CellTiter-Glo), TC32; type: cell-based; conditions: TP53 wild-type, 3 days
Procedure: as §1

T1 sequence (Q93009 whole entry): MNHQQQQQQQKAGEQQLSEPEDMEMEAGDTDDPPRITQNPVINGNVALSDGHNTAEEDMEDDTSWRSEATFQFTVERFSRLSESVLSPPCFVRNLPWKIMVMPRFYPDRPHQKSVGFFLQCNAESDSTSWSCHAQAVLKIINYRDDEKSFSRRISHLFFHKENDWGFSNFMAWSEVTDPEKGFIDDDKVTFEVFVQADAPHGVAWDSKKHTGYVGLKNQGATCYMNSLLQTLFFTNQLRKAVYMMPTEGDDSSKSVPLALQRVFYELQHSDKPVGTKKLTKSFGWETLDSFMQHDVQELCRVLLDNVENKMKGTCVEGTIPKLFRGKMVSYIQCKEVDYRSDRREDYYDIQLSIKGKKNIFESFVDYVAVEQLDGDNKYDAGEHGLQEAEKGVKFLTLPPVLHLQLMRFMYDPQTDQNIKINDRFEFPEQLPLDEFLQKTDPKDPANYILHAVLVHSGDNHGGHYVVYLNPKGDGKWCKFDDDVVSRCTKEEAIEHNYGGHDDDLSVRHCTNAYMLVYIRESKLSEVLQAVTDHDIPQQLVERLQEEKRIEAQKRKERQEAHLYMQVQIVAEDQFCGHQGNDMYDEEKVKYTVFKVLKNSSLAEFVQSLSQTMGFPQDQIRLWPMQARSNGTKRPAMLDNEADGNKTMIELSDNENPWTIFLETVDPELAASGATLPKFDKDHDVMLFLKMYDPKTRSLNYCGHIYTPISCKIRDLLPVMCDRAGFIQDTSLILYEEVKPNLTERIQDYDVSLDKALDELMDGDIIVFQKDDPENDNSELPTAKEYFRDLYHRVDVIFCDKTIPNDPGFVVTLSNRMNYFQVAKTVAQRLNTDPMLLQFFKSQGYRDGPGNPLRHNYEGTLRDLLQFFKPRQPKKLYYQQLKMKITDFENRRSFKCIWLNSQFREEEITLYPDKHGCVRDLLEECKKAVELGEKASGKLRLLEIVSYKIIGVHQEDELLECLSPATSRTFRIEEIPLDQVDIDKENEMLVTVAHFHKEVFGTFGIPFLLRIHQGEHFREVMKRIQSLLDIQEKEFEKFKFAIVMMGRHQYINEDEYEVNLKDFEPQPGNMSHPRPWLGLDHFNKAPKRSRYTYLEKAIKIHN
Chain of USP7 catalytic domain (Q93009 208-560): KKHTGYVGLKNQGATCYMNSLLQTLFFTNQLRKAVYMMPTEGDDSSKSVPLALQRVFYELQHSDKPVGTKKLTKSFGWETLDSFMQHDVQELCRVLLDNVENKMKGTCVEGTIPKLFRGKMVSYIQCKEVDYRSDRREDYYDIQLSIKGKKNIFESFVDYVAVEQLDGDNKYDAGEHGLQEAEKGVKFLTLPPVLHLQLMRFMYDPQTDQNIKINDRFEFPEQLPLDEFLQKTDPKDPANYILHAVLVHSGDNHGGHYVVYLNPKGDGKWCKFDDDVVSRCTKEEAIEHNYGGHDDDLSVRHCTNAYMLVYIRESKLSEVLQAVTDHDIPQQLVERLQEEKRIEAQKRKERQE

CN1CCN(CCC(=O)Nc2ccc3c(=O)n(CC4(O)CCN(C(=O)[C@@H](CCCNC(=O)c5ccc6c(Cl)c7c(nc6c5)CCCC7)Cc5ccccc5)CC4)cnc3c2)CC1 [compound 6, (S)—N-(4-benzyl-5-(4-hydroxy-4-((7-(3-(4-methylpiperazin-1-yl)propanamido)-4-oxoquinazolin-3(4H)-yl)methyl)piperidin-1-yl)-5-oxopentyl)-9-chloro-5,6,7,8-tetrahydroacridine-3-carboxamide]
site of covalent modification (MS/MS) (USP7 catalytic domain): binding to the catalytic residue, C223 | labeling of USP7 catalytic domain by MS (USP7 catalytic domain; 15 minutes incubation): Quantitative labeling of USP7 | growth inhibition (TC71 cells): neither TP53-mutant A673 or TC71 was substantially inhibited | cell cycle effect (MCF7 cells): complete G1 arrest | growth inhibition (TC138 cells): potently inhibited | IC50 (USP7 [1]; 30 min preincubation): 85 nM | IC50 (USP7 [1]; 4 hr preincubation): 8 nM | activity against other DUBs of the panel [2]: did not exhibit significant activity against any other DUBs | inhibition of USP7 enzymatic activity [2]: completely inhibited USP7 enzymatic activity | IC50 (USP7 [3]): 39 nM | MDM2 protein level [4]: induced rapid degradation of MDM2 within 2 hours | p53 and p21 protein levels [4]: increases in p53 and downstream p21 protein levels | growth inhibition (TC32 cells): potently inhibited
